Key:
Experiment in all cases: NCI cytotoxicity screen (SRB)
Assay type in all cases: cell-based, human
A549/ATCC = system: A549/ATCC
Method: (§1) Compounds 6, 7, 9 and 10 were tested for cytotoxic properties by the National Cancer Institute, Bethesda, Md. The anticancer drug screen utilized a panel of 60 human tumor cell lines organized into subpanels representing leukemia, melanoma, and cancers of the lung, colon, kidney, ovary and central nervous system and is described by Monks et al. (1991) Journal of the National Cancer Institute 83, 757, which is incorporated herein by reference.
(§2) Cell lines were inoculated onto microtiter plates and preincubated for 24-28 hours. 100 μL aliquots of each compound were added to the appropriate microtiter plate wells in each of five 10-fold dilutions starting from a maximum concentration of 10^-4 M in water or DMSO. Cultures were then incubated for an additional 48 hours. Cells were then fixed in situ, followed by staining with sulforhodamine B (SRB), which binds to basic amino acids of cellular macromolecules. The solubilized stain was measured spectrophotometrically to determine relative cell growth or viability in treated and untreated cells. The monoimidazole analogs of Compounds 6, 7, 9 and 10 and the formamido analog corresponding to Compounds 7 and 10 are devoid of activity against the panel of cancer cell lines in Table III.

SF-295 = system: SF-295
Method: as §1, §2

COLO-205 = system: COLO-205
Method: as §1, §2

DMS-273 = conditions: DMS-273; subsequent test date
Method: as §1, §2

XF498 = system: XF498
Method: as §1, §2

KM20L2 = system: KM20L2
Method: as §1, §2

NCI-H522 = system: NCI-H522
Method: as §1, §2

HCC-2998 = system: HCC-2998
Method: as §1, §2

NCI-H460 = system: NCI-H460
Method: as §1, §2

DMS-114 = system: DMS-114
Method: as §1, §2

HCT-116 = system: HCT-116
Method: as §1, §2

SF-268 = system: SF-268
Method: as §1, §2

NCI-H23 = system: NCI-H23
Method: as §1, §2

K-562 = system: K-562
Method: as §1, §2

NCI-H322M = system: NCI-H322M
Method: as §1, §2

HCT-15 = system: HCT-15
Method: as §1, §2

SF-539 = system: SF-539
Method: as §1, §2

HT29 = system: HT29
Method: as §1, §2

HOP-62 = system: HOP-62
Method: as §1, §2

Molt-4 = system: Molt-4
Method: as §1, §2

KM12 = system: KM12
Method: as §1, §2

EKVX = system: EKVX
Method: as §1, §2

MALME-3M = system: MALME-3M
Method: as §1, §2

SW-620 = system: SW-620
Method: as §1, §2

NCI-H226 = system: NCI-H226
Method: as §1, §2

DLD-1 = system: DLD-1
Method: as §1, §2

U251 = system: U251
Method: as §1, §2

HL-60 (TB) = system: HL-60 (TB)
[1] = 48 h, Non-Small Cell Lung Cancer A549/ATCC
[2] = A549/ATCC, subsequent test date
[3] = 48 h, Non-Small Cell Lung Cancer NCI-H522
[4] = 48 h, Non-Small Cell Lung Cancer NCI-H460
[5] = 48 h, Non-Small Cell Lung Cancer NCI-H23
[6] = 48 h, Non-Small Cell Lung Cancer NCI-H322M
[7] = NCI-H322M, subsequent test date
[8] = 48 h, Non-Small Cell Lung Cancer HOP-62
[9] = 48 h, Non-Small Cell Lung Cancer EKVX

CN(C)CCNC(=O)c1nc(NC(=O)c2nc(NC(=O)c3ccc(N(CCCl)CCCl)cc3)cn2C)cn1C [Compound 6, N-(N',N'-dimethylaminoethyl)-1-methyl-4-{4-[4,4-bis(2-chloroethyl)aminobenzamido]-1-methylimidazole-2-carboxamido}imidazole-2-carboxamide]
IC50 (A549/ATCC; [1]): 58.8 µM
IC50 (A549/ATCC; [2]): 38.4 µM
IC50 (SF-295; 48 h, CNS Cancer SF-295): 43.6 µM
IC50 (SF-295; SF-295, subsequent test date): 33.2 µM
IC50 (COLO-205; 48 h, Colon Cancer COLO-205): 5.88 µM
IC50 (COLO-205; COLO-205, subsequent test date): 7.39 µM
IC50 (DMS-273): 31.3 µM
IC50 (XF498; XF498, subsequent test date): 25.2 µM
IC50 (KM20L2; 48 h, Colon Cancer KM20L2): 6.77 µM
IC50 (KM20L2; KM20L2, subsequent test date): 20.1 µM
IC50 (NCI-H522; [3]): 6.98 µM
IC50 (NCI-H522; NCI-H522, subsequent test date): 5.74 µM
IC50 (HCC-2998; 48 h, Colon Cancer HCC-2998): 33.7 µM
IC50 (HCC-2998; HCC-2998, subsequent test date): 8.14 µM
IC50 (NCI-H460; [4]): 46.1 µM
IC50 (NCI-H460; NCI-H460, subsequent test date): 35.1 µM
IC50 (DMS-114; 48 h, Small Cell Lung Cancer DMS-114): 5.83 µM
IC50 (DMS-114; DMS-114, subsequent test date): 4.99 µM
IC50 (HCT-116; 48 h, Colon Cancer HCT-116): 6.54 µM
IC50 (HCT-116; HCT-116, subsequent test date): 6.71 µM
IC50 (SF-268; 48 h, CNS Cancer SF-268): 50 µM
IC50 (SF-268; SF-268, subsequent test date): 9.21 µM
IC50 (NCI-H23; [5]): 47.1 µM
IC50 (NCI-H23; NCI-H23, subsequent test date): 43.6 µM
IC50 (K-562; 48 h, Leukemia K-562): 17.2 µM
IC50 (K-562; K-562, subsequent test date): 12.3 µM
IC50 (NCI-H322M; [6]): 40.5 µM
IC50 (NCI-H322M; [7]): 51.7 µM
IC50 (HCT-15; 48 h, Colon Cancer HCT-15): 40.5 µM
IC50 (HCT-15; HCT-15, subsequent test date): 43.2 µM
IC50 (SF-539; 48 h, CNS Cancer SF-539): 6.97 µM
IC50 (SF-539; SF-539, subsequent test date): 57.3 µM
IC50 (HT29; 48 h, Colon Cancer HT29): 5.9 µM
IC50 (HT29; HT29, subsequent test date): 27.4 µM
IC50 (HOP-62; [8]): 52.3 µM
IC50 (HOP-62; HOP-62, subsequent test date): 50.6 µM
IC50 (Molt-4; 48 h, Leukemia Molt-4): 18.1 µM
IC50 (Molt-4; Molt-4, subsequent test date): > 100 µM
IC50 (KM12; 48 h, Colon Cancer KM12): 47 µM
IC50 (KM12; KM12, subsequent test date): 31.6 µM
IC50 (EKVX; [9]): 47.5 µM
IC50 (EKVX; EKVX, subsequent test date): 38 µM
IC50 (MALME-3M; 48 h, Melanoma MALME-3M): 6.14 µM
IC50 (MALME-3M; MALME-3M, subsequent test date): 64.3 µM
IC50 (SW-620; 48 h, Colon Cancer SW-620): 9.95 µM
IC50 (SW-620; SW-620, subsequent test date): 12 µM
IC50 (NCI-H226; 48 h, Non-Small Cell Lung Cancer NCI-H226): 62.2 µM
IC50 (NCI-H226; NCI-H226, subsequent test date): 61.3 µM
IC50 (DLD-1; 48 h, Colon Cancer DLD-1): 46.6 µM
IC50 (DLD-1; DLD-1, subsequent test date): 55.5 µM
IC50 (U251; 48 h, CNS Cancer U251): 6.73 µM
IC50 (U251; U251, subsequent test date): 5.8 µM
IC50 (HL-60 (TB); 48 h, Leukemia HL-60 (TB)): 7.84 µM
IC50 (HL-60 (TB); HL-60 (TB), subsequent test date): 7.93 µM

CN(C)CCNC(=O)c1nc(NC(=O)c2nc(NC(=O)c3nc(NC(=O)c4ccc(N(CCCl)CCCl)cc4)cn3C)cn2C)cn1C [Compound 7, N-(N',N'-dimethylaminoethyl)-1-methyl-4-{1-methyl-4-[4-(4,4-bis-(2-chloroethyl)aminobenzamido)-1-methylimidazole-2-carboxamido]imidazole-2-carboxamido}imidazole-2-carboxamide]
IC50 (A549/ATCC; [1]): 5.64 µM
IC50 (A549/ATCC; [2]): 4.12 µM
IC50 (SF-295; 48 h, CNS Cancer SF-295): 4.1 µM
IC50 (COLO-205; 48 h, Colon Cancer COLO-205): 0.97 µM
IC50 (COLO-205; COLO-205, subsequent test date): 0.56 µM
IC50 (DMS-273): 0.99 µM
IC50 (XF498; 48 h, CNS Cancer XF498): 0.62 µM
IC50 (XF498; XF498, subsequent test date): 0.65 µM
IC50 (KM20L2; 48 h, Colon Cancer KM20L2): 7.92 µM
IC50 (NCI-H522; [3]): 4.41 µM
IC50 (NCI-H522; NCI-H522, subsequent test date): 0.42 µM
IC50 (HCC-2998; 48 h, Colon Cancer HCC-2998): 0.68 µM
IC50 (HCC-2998; HCC-2998, subsequent test date): 0.89 µM
IC50 (NCI-H460; [4]): 5.67 µM
IC50 (NCI-H460; NCI-H460, subsequent test date): 4.12 µM
IC50 (DMS-114; DMS-114, subsequent test date): 0.54 µM
IC50 (SF-268; 48 h, CNS Cancer SF-268): 0.77 µM
IC50 (NCI-H23; [5]): 0.96 µM
IC50 (NCI-H23; NCI-H23, subsequent test date): 2.35 µM
IC50 (K-562; 48 h, Leukemia K-562): 0.58 µM
IC50 (NCI-H322M; [6]): 2.39 µM
IC50 (NCI-H322M; [7]): 1.97 µM
IC50 (HCT-15; 48 h, Colon Cancer HCT-15): > 10 µM
IC50 (HCT-15; HCT-15, subsequent test date): > 100 µM
IC50 (SF-539; SF-539, subsequent test date): 0.59 µM
IC50 (HT29; 48 h, Colon Cancer HT29): 2.3 µM
IC50 (HT29; HT29, subsequent test date): 1.97 µM
IC50 (HOP-62; [8]): 1.17 µM
IC50 (Molt-4; 48 h, Leukemia Molt-4): 0.98 µM
IC50 (KM12; 48 h, Colon Cancer KM12): 0.96 µM
IC50 (KM12; KM12, subsequent test date): 0.75 µM
IC50 (EKVX; [9]): 0.88 µM
IC50 (EKVX; EKVX, subsequent test date): 1.7 µM
IC50 (MALME-3M; 48 h, Melanoma MALME-3M): 2.63 µM
IC50 (MALME-3M; MALME-3M, subsequent test date): 4.34 µM
IC50 (SW-620; 48 h, Colon Cancer SW-620): 0.79 µM
IC50 (SW-620; SW-620, subsequent test date): 0.63 µM
IC50 (NCI-H226; NCI-H226, subsequent test date): 5.54 µM
IC50 (DLD-1; 48 h, Colon Cancer DLD-1): 4.34 µM
IC50 (U251; U251, subsequent test date): 0.5 µM
IC50 (HL-60 (TB); 48 h, Leukemia HL-60 (TB)): 0.72 µM

Reference: patent US5273991A, “Imidazole-containing compositions and methods of use thereof analogs of distamycin” (Research Corporation Technologies, Inc., priority 1992, dated 1993)
